# Laboratory results taken from patent US5264621A, “Anti-virus agent” (Sanyo-Kokusaku Pulp Co., Ltd., priority 1991, dated 1993).
# Read-outs that look alike come from different tables or passages of the source.
# Legend:
# bone marrow cells = settings: background statement; cited from earlier work
# [1] = Toxicity of sample to non-infected cells (MTT); type: cell-based; settings: human, mt-4 cells, non-infected MT-4 cells, read-out: CC50 = 50% toxic concentration
# Protocol: (§1) Various concentrations of 3,3'-[1,10-decanediyl-bis(carbonylamino)]-bis(1,5-naphthalenedisulfonc acid) were added to each medium suspended 1×10^5 cells/ml of MT-4 cells, which was infected with HTLV-IIIB or HIV-1HE. Infection was made at an infection number of MOI=0.02. Then, after cultured for 4 days at 37° C., the number of surviving cells was quantitatively determined by dyeing surviving cells with MTT dye. Moreover, at the same time, by dyeing also non-infected cells with MTT dye, the toxicity of sample to cells was calculated.
# HTLV-IIIB = test: Inhibitory effect on the destruction of T-cells due to HIV (MTT), HTLV-IIIB; type: cell-based, HIV (human immunodeficiency virus); settings: MT-4 cells
# Protocol: (§2) 1. Inhibitory effect on the destruction of T-cells due to HIV
# as §1
# HIV-1HE = test: Inhibitory effect on the destruction of T-cells due to HIV (MTT), HIV-1HE; type: cell-based, HIV (human immunodeficiency virus); settings: MT-4 cells
# Protocol: as §2, §1
# [2] = tested on: MOLT-4 cells infected with HTLV-IIIB; test: Inhibition of the formation of giant cells; type: cell-based; settings: co-culture of HTLV-IIIB infected and non-infected MOLT-4 cells, 24 hours, counted under microscope
# Protocol: 3. Inhibition of the formation of giant cells
# MOLT-4 cells infected with HTLV-IIIB and MOLT-4 cells without infection were cultured each in same number (5×10^4) in medium with 3,3'-[1,10-decanediyl-bis(carbonylamino)]-bis(1,5-naphthalenedisulfonic acid) added and, after cultured for 24 hours, the number of giant cells formed was counted under microscope.
# [3] = Human immunodeficiency virus 1, MT4, 96 h, MOI=0.02, 4 days at 37° C., MTT, read-out: EC50 = Effective concentration for inhibition of 50% cells
SMILES,side effects (bone marrow cells),CC50 at 96 h ([1]; HIV-1HE system (No. 2)),CC50 at 96 h ([1]; HTLV-IIIB system (No. 1)),EC50 (HTLV-IIIB; [3]),T.I. = Selective toxicity (CC50 /EC50) (HTLV-IIIB),EC50 (HIV-1HE; [3]),T.I. = Selective toxicity (CC50 /EC50) (HIV-1HE),inhibitory activity against formation of giant cells [2]
"Cc1cn([C@H]2C[C@H](N=[N+]=[N-])[C@@H](CO)O2)c(=O)[nH]c1=O [AZT, azido thymidine]",inhibition of the growth of bone marrow cells,,,,,,,
"O=C(CCCCCCCCCCC(=O)Nc1cc(S(=O)(=O)O)c2cccc(S(=O)(=O)O)c2c1)Nc1cc(S(=O)(=O)O)c2cccc(S(=O)(=O)O)c2c1 [3,3'-[1,10-decanediyl-bis(carbonylamino)]-bis(1,5-naphthalenedisulfonic acid)]",,500 µg/mL,383 µg/mL,46 µg/mL,8.3,40.7 µg/mL,12.3,recognized
